Columns and labels:
Bradykinin receptor 1 [1] = target: T1, Bradykinin receptor 1 (Homo sapiens, UniProt P46663); conditions: described as moderate; cited from earlier work
T1 sequence (P46663 1-353): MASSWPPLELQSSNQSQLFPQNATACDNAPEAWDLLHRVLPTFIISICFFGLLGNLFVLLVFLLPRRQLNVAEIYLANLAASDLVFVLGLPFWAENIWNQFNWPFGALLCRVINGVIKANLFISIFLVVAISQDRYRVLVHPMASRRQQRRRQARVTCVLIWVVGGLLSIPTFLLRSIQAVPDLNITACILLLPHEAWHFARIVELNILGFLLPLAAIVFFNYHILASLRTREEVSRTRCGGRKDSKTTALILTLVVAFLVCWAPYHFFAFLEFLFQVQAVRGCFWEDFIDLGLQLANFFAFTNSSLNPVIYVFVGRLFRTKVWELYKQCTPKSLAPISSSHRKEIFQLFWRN

[2] = relative to the natural ligand Lys-desArg-bradykinin; cited from earlier work
[3] = system: cerebrovascular reactivity (perfusion reserves in the brain); assay: 3-VO cerebral arteriogenesis model: cerebrovascular reactivity (acetazolamide, laser-doppler); type: in vivo; conditions: rat; for cerebrovascular reactivity (CVR), increase in blood flow: three weeks after 3-VO (FIG. 5D)
Description: (§1) Pharmacological modulation of arteriogenesis was analyzed using a 3 vessel occlusion (3-VO) model for cerebral arteriogenesis in the rat (Occlusion of both vertebral arteries and one carotid artery). Upon occlusion of three of four blood-supplying arteries to the brain, blood flow is redistributed by the recruitment of collateral pathways such as the posterior cerebral artery to supply the hypoperfusion area with blood. The 3-VO model in the rat has been established since 2003 and is acknowledged as a hypoperfusion model for testing cerebral arteriogenesis (Busch, Buschmann et al. 2003). By using the 3-VO model, relevant therapeutic stimulation of arteriogenesis was shown for instance by the application of GM-CSF (Buschmann, Circulation 2003).
The characterization of arteriogenesis was carried out via measurement of the artery or blood vessel diameter (posterior cerebral artery—PCA) in addition to via a measurement of the cerebrovascular reactivity (perfusion reserves in the brain). Cerebrovascular anatomy was studied after maximal vasodilation by a modification of the postmortem latex perfusion method of Maeda et al (Maeda, Hata et al. 1998).
CVR is reduced through selective inhibition of the bradykinin B1 and B2 signaling pathways. Negative CVR values are based on the Steal phenomenon (Kuwabara, Ichiya et al. 1995). (FIG. 5D). Upon increase of the CO2 partial pressure under normal conditions, vessels in the brain are capable of increasing blood flow to around 20% of the normal blood flow. Directly after the 3-VO experiment no cerebrovascular reactivity is detectable anymore. Blood flow recovers within 3 weeks post 3-VO and the perfusion reserve is restored to around 10%.

[4] = system: cerebral arteriogenesis (posterior cerebral artery collateral pathway); assay: 3-vessel occlusion (3-VO) cerebral arteriogenesis model: collateral growth / posterior cerebral artery diameter; type: in vivo, rat; conditions: for cerebral arteriogenesis / arteriogenesis (collateral growth): rat 3-VO model; for cerebral arteriogenesis: BR1 agonist treatment, 1 week post 3-VO (FIG. 6); for arteriogenesis (collateral growth): antagonist treatment, 3 weeks post 3-VO (FIG. 5); for artery diameter changes (posterior cerebral artery) / collateral arterial growth: rat 3-VO, 3 weeks; for artery diameter changes (posterior cerebral artery): compared with untreated controls; for collateral arterial growth: ipsilateral and contralateral collateral pathways (FIGS. 5B and 5C)
Description: as §1, with “Circulation 2003). Either by inhibition or stimulation of the bradykinin receptor signaling pathways, arteriogenesis was determined and physiological parameters of the brain were tested. […] The characterization of arteriogenesis was carried out via measurement of the artery or blood vessel diameter (posterior cerebral artery-PCA) in addition to via a measurement of the cerebrovascular reactivity (perfusion reserves in the brain). Cerebrovascular anatomy was studied after maximal vasodilation by a modification of the postmortem latex perfusion method of Maeda et al (Maeda, Hata et al. 1998).” for “Circulation 2003).”

Bradykinin receptor 1 [5] = target: T1, Bradykinin receptor 1; conditions: described as moderate; cited from earlier work; remark: listed apart in the source

Sar-[D-Phe8]-des-Arg9-bradykinin [R838]
affinity relative to the natural ligand Lys-desArg-bradykinin (Bradykinin receptor 1 [1]): about 11 fold less
susceptibility toward proteolysis [2]: lower susceptibility toward proteolysis
cerebrovascular reactivity (CVR) ([3]; 1 week post 3-VO (FIG. 6D)): significantly increased
cerebral arteriogenesis [4]: stimulated therapeutically
cerebral arteriogenesis ([4]; listed as Sar[DPhe8]desArg-bradykinin): therapeutically enhanced
diameter of the posterior cerebral artery (PCA) ([4]; rat, seven days after 3-VO, versus untreated rats after 3-VO (FIG. 6B,C)): significantly greater
potency relative to the natural ligand Lys-desArg-bradykinin (Bradykinin receptor 1 [5]): ~2 fold less

NC(N)=NCCC[C@@H](N)C(=O)N[C@@H](CCCN=C(N)N)C(=O)N1CCC[C@H]1C(=O)N1C[C@H](O)C[C@H]1C(=O)NCC(=O)N[C@@H](Cc1cccs1)C(=O)N[C@@H](CO)C(=O)N1Cc2ccccc2C[C@@H]1C(=O)N1[C@H](C(=O)N[C@@H](CCCN=C(N)N)C(=O)O)C[C@@H]2CCCC[C@@H]21 [HOE-140, icatibant]
cerebrovascular reactivity (CVR), increase in blood flow [3]: no increase in blood flow is detected
arteriogenesis (collateral growth) [4]: inhibited
artery diameter changes (posterior cerebral artery) [4]: reduced collateral growth
collateral arterial growth [4]: slightly

(Des-Arg^9, Leu^8)-bradykinin [H1960]
cerebrovascular reactivity (CVR), increase in blood flow [3]: no increase in blood flow is detected
arteriogenesis (collateral growth) [4]: inhibited
artery diameter changes (posterior cerebral artery) [4]: increase in diameter to a lesser extent than in the untreated controls
collateral arterial growth [4]: strongly reduced
